Consider one molecule from article PMC13183915, “A platinum butterfly effect: small changes turn an anticancer drug into a non-toxic metalloantibiotic with in vivo efficacy” (npj Antimicrobials and Resistance, 2026).

Each structure is given as a SMILES string. Values joined by “and” are separate entries in the source; they are usually repeats but may differ in a detail not shown here. Identical values can stand only once.

What is called MIC is the least concentration at which growth counts as inhibited. One may read the HC50 as the concentration that lyses half of the red blood cells. High values mean less damage to red cells, low ones more damage to red cells.

The subject of one data set is MRSA NRS 191. As to the kind of experiment: Broth microdilution MIC, MRSA NRS 191. The class given is cell-based, S. aureus. The settings on record: MRSA NRS 191. Here is the method:
(§1) The data is given in supporting information (Table S5). Before starting the experiment, a single colony was picked from MHA plate, inoculated in MHBII and incubated overnight at 37 °C with shaking for 18–24 h to get the starter culture. Antibiotic susceptibility testing was conducted according to the CLSI (Clinical & Laboratory Standards Institute) guidelines using the broth microdilution assay. 10 mg/mL stock solutions of test compounds were prepared in DMSO. Bacterial cultures were inoculated in MHBII and optical density (OD) was measured at 600 nm, followed by dilution to achieve ~10^6 CFU/mL. The compounds were tested from 64 to 0.5 mg/L in two-fold serial diluted fashion with 2.5 μL of each concentration added to well of a 96-well round bottom microtiter plate. Later, 97.5 μL of bacterial suspension was added to each well containing either test compound or appropriate controls. […] The MIC is defined as the lowest concentration of the compound at which there is absence of visible growth. For each test compound, MIC determinations were carried out independently three times using duplicate samples.

For data set [1], the system named is RpoC-GFP (B. subtilis 1048). As to the kind of experiment: Localization of RpoC-GFP (transcription reporter). Format: cell-based, Bacillus subtilis. The settings on record: 3.12 µM Pt1, 25 µM Pt8; 30 and 60 min. How it is done:
(§2) B. subtilis strains were grown in LB containing appropriate inducer concentrations as specified in Table S10. After reaching an OD600 of 0.3, cultures were split and treated with antibiotics. Samples were withdrawn after 30 and 60 min of treatment, spotted on glass slides covered with 1% agarose films, and immediately imaged.
Figure S9: Localization of RpoC-GFP (B. subtilis 1048). Cultures were treated with 3.12 µM
(§3) (1 picture or pasted object on this page, not shown here)

Another data set has as its system E. coli tolC. Also on record: method as in PMID 34018686. The settings on record: efflux-impaired mutant; cited from earlier work.
The subject of another data set is S. aureus ATCC 29213. As to the kind of experiment: Murine superficial skin infection model. Format: in vivo. The settings on record: topical 2% cream, twice daily for 4 days, Swiss mice. How it is done:
The in vivo efficacy of Pt1 was determined in a superficial skin infection model. Briefly, male Swiss mice, 4–6 weeks old, weighing ∼22–25 g, were used throughout the study. Mice were caged alone in an individually vented cage (IVC) to check cross-contamination and to maintain aseptic conditions throughout the experiment. Ketamine and xylazine were prepared in distilled water, 40 mg/kg and 8 mg/kg of body weight, respectively, and injected intraperitoneally (IP) as a mixture of 100 μL in each mouse for anaesthesia. Then, we proceeded with the removal of fur by applying depilatory cream. The area was cleaned with sterile distilled water. Approximately 2 cm^2 of skin area was scratched until it became visibly reddened and glistening without any bleeding. For bacterial infection, a 10 μL droplet containing 10^7 CFU/mL of S. aureus ATCC 29213 was applied to the reddened area of skin. To confirm the infection, post 4 h, untreated mice were sacrificed, skin homogenized, and various dilutions of the treatment groups (6 mice per group) were plated on TSA plates. […] Henceforth, the drug regimen was comprised of twice daily application (in the morning and the evening, with an 8 h interval) for 4 days. Control mice were regularly treated with 25–30 mg each of 2% fusidic acid (LEO Pharma, Ballerup, Denmark), 2% infuzide, and base (vehicle). […]

Data set [2] deals with B. subtilis 168CA. As to the kind of experiment: ROS scavenger assay (modified MIC assay). Format: cell-based, Bacillus subtilis. How it is done:
LB media were prepared to contain either 10 mM tiron, 150 mM thiourea, 10 mM tiron and 150 mM thiourea, or no […]. Serial two-fold dilutions of the different antibiotics were prepared in the respective media and transferred to 96-well plates. […] The OD600 was meassured in a BMG Clariostar Plus plate reader.

Another data set has as its system E. coli (NCTC 13476). Kind of data set: MIC, E. coli NCTC 13476 (with or without PMBN). The settings on record: E. coli NCTC 13476 + 10 µg/mL PMBN (polymyxin B nonapeptide). The class given is cell-based.
Data set [3] relates to B. subtilis 168CA. Kind of data set: DiSC3(5)-based membrane potential measurement. Format: cell-based, Bacillus subtilis. The settings on record: 3.125 µM Pt1, 25 µM Pt8. How it is done: The membrane potential was measured according to Winkel et al. with minor modifications. B. subtilis 168CA was grown in LB containing 50 µg/mL bovine serum albumin (BSA). Cells were transferred to black 96-well polystyrene microtiter plates after reaching an OD600 of 0.3. DiSC3(5) was added to a final concentration of 1 µM, maintaining a constant concentration of 1% DMSO to avoid precipitation of the dye. After the fluorescence baseline had stabilized, antibiotic compounds were added, and measurements were continued for 30 min. Fluorescence was recorded at an excitation wavelength of 610–30 nm and an emission wavelength of 675–50 nm in a BMG Clariostar Plus plate reader.

The next data set has as its system E. coli ATCC 25922. As to the kind of experiment: Broth microdilution MIC, E. coli ATCC 25922. The class given is cell-based. Here is the method:
as §1
Background: In broth dilution the organism is exposed to a series of concentrations in liquid medium.

Data set [4] deals with RpsB-GFP (B. subtilis 1049). As to the kind of experiment: Localization of RpsB-GFP (translation reporter). The class given is cell-based, Bacillus subtilis. The following applies: 3.12 µM Pt1, 25 µM Pt8; 30 and 60 min. How it is done:
as §2
Figure S10: Localization of RpsB-GFP (B. subtilis 1049). Cultures were treated with 3.12 µM
as §3

Another data set concerns MRSA NRS 186. As to the kind of experiment: Broth microdilution MIC, MRSA NRS 186. Format: cell-based, S. aureus. The settings on record: MRSA NRS 186. How it is done: as §1
Data set [5] relates to human red blood cells (RBC). As to the kind of experiment: Hemolysis assay in hRBCs. Format: cell-based. The settings on record: 4 hours at 20 °C.
Data set [6] relates to B. subtilis 168CA. As to the kind of experiment: Propidium iodide pore assay. Format: cell-based, Bacillus subtilis. The settings on record: 3.125 µM Pt1, 25 µM Pt8; 30 and 60 min. How it is done: Propidium iodide staining was performed as described previously. B. subtilis 168CA was grown to an OD600 of 0.3 prior to splitting of the parent culture and treatment with the different antibiotics. After 15 and 45 min, samples were stained with 13.3 µg/mL propidium iodide for 15 min (total treatment times 30 and 60 min), and washed 3 times with phosphate-buffered saline (PBS). Fluorescence signals were recorded at an excitation wavelength of 535–15 nm and an emission wavelength of 617–20 nm in a BMG Clariostar Plus plate reader.

The test system of a further data set is K. pneumoniae BAA 1705. As to the kind of experiment: Broth microdilution MIC, K. pneumoniae BAA 1705. Format: cell-based, Klebsiella pneumoniae. Here is the method: as §1

`C1=C\CC/C=C\CC/1.[Cl][Pt][Cl]` [Pt1]: the MIC with MRSA NRS 191 is 0.25 µg/mL and 0.67 µM; with E. coli (NCTC 13476), over 100 µM; against E. coli ATCC 25922, over 64 µg/mL; against MRSA NRS 186, 0.125 – 0.25 µg/mL and 0.33–0.67 µM; with K. pneumoniae BAA 1705, over 64 µg/mL. For the same molecule, the “localization of RpoC” value in data set [1] is recorded as “Neither protein showed a distinct phenotype”. Also, in the data set with E. coli tolC, the antibacterial activity entry was “inactive”. The “reduction in bacterial load compared to vehicle-treated group” value in the data set with S. aureus ATCC 29213 is recorded as ~ 1.9 log10 CFU/g. The “MIC fold change (increase) with scavenger” value with B. subtilis 168CA [2] (medium containing 150 mM thiourea (hydroxyl radical scavenger)) is “tenfold”. The “MIC fold change (increase) with scavengers” value with B. subtilis 168CA [2] (medium containing both tiron and thiourea) came out at 13 fold. Also, in the data set with B. subtilis 168CA [3], the “membrane depolarization (DiSC(3)5)” value is reported as “no membrane depolarization could be observed”. Also, the “localization of RpsB” value in data set [4] is listed as “Neither protein showed a distinct phenotype”. Further, the HC50 in data set [5] is listed as over 200 µM. Besides, in the data set on B. subtilis 168CA [6], the “propidium iodide (PI) uptake” value is on record as “Neither Pt1 nor Pt8 showed increased PI uptake”.
